Article PMC10487658, “Identification and Characterization of RK22, a Novel Antimicrobial Peptide from Hirudinaria manillensis against Methicillin Resistant Staphylococcus aureus” (International Journal of Molecular Sciences, 2023)
In brackets after ≈: the same amount, converted by molar mass. Like-named read-outs stand apart in the source and are kept apart here. Residues, ends and D or L forms follow the SMILES beside them. No end group written: not given here.

Assays:
S. aureus (ATCC6538) = assay: microbe, parasite or virus in culture; type: cell-based, Staphylococcus aureus
Experimental: (§1) The bacterial strains used in this study included Pseudomonas aeruginosa (P. aeruginosa, ATCC27853), Acinetobacter baumannii (A. baumannii, ATCC19606), Escherichia coli (E. coli, ATCC8739), and S. aureus (ATCC6538, two clinically isolated strains (SA220823 and SA15772)), and three clinically isolated methicillin-resistant strains (MRSA-Z, MRSA11, and MRSA22). All strains were grown in Luria-Bertani (LB) broth.
(§2) The minimum inhibitory concentration (MIC) for all strains was determined using the […] assay based on a previous study with minor modifications. Initially, strains in the exponential phase were diluted to a concentration of 2 × 10^5 CFU/mL using RPMI 1640 medium (Corning, New York, NY, USA). Next, 100 μL of the bacterial suspension was mixed with 100 μL of the sample solution (final concentration 0–200 μg/mL in RPMI 1640 medium) in 96-well plates. The plates were then incubated at 37 °C for 12–16 h. After incubation, the absorbance at 600 nm was measured, and the MIC was determined as the lowest concentration of the test sample in which no bacterial growth was detected in the well.

P. aeruginosa, ATCC9027 = type: cell-based, Pseudomonas aeruginosa; settings: RPMI 1640, 37 °C, 12–16 h, absorbance at 600 nm
E. coli, ATCC25922 = type: cell-based, Escherichia coli; settings: RPMI 1640, 37 °C, 12–16 h, absorbance at 600 nm
washed platelets = assay: Platelet activity assay, flow cytometry; type: cell-based; settings: mouse washed platelets, 20, 10, 5, 2.5 μg/mL, 10 min, P-selectin
Experimental: Platelets were isolated from the mice as described in a previous study with minor modifications. The effect of RK22 and LL-37 on platelet activity was detected by flow cytometry. Mouse blood was mixed with Tyrode’s buffer A (137 mM NaCl, 2 mM KCl, 0.3 mM NaH2PO4, 12 mM NaHCO3, 5.5 mM glucose, 0.35% BSA, 1 mM MgCl2, and 0.2 mM EDTA, pH 6.5) and centrifuged (150× g, 10 min, room temperature) to obtain platelet-rich plasma (PRP), which was then pelleted (400× g, 5 min, room temperature), washed with Tyrode’s buffer A, and finally resuspended in Tyrode’s buffer B (137 mM NaCl, 2 mM KCl, 0.3 mM NaH2PO4, 12 mM NaHCO3, 5.5 mM glucose, 0.35% BSA and 2 mM CaCl2, pH 7.4). Antibodies against P-selectin (Biolegend, San Diego, CA, USA) were added to the platelets, followed by incubation for 10 min at room temperature. Samples (20, 10, 5, and 2.5 μg/mL) or normal saline were added, respectively, and analyzed by flow cytometry (BD, LSRFortessa^TM, Franklin Lakes, NJ, USA).

FXa = biological target: T1, FXa (Homo sapiens, UniProt P00742); assay: Enzymatic activity assay of coagulation factors, chromogenic substrate; type: biochemical; settings: 40, 200, 1000 nM, 10 min pre-incubation, substrate S-2222, 405 nm
T1 construct: purchased Enzymeresearch, Lake Oswego, OR, USA
Experimental: (§3) The enzymatic activity of RK22 and LL-37 against coagulation factors was measured using the chromogenic substrate method. In brief, 5 μL of FXa (Enzymeresearch, Lake Oswego, OR, USA) (final concentration 3 μg/mL) or thrombin (Enzymeresearch, Lake Oswego, OR, USA) (final concentration 0.1056 μg/mL) and 5 μL of sample (final concentration 40, 200, and 1000 nM) were incubated for 10 min in 96-well plates, respectively. Following incubation, thrombin substrate (S-2238, Chromogenix, Milano, Italy, 45 μg/mL) or FXa substrate (S-2222, Chromogenix, Milano, Italy, 90 μg/mL) dissolved with 90 μL of enzyme dynamic buffer (100 mM NaCl, 50 mM Tris, 5 mM CaCl2, pH 8.0) were added and absorbance was measured at 405 nm every 1 min for 90 min.

thrombin = biological target: T2, thrombin (Homo sapiens, UniProt P00734); assay: as above; type: biochemical; settings: 40, 200, 1000 nM, 10 min pre-incubation, substrate S-2238, 405 nm
T2 construct: purchased Enzymeresearch, Lake Oswego, OR, USA
Experimental: as §3

[1] = tested on: MRSA-Z (clinically isolated methicillin-resistant S. aureus); assay: microbe, parasite or virus in culture; type: cell-based, Staphylococcus aureus; settings: Staphylococcus aureus, MRSA
Experimental: as §1, §2

[2] = tested on: MRSA11 (clinically isolated methicillin-resistant S. aureus); assay: microbe, parasite or virus in culture; type: cell-based, Staphylococcus aureus; settings: Staphylococcus aureus
Experimental: as §1, §2

[3] = tested on: SA15772 (clinically isolated S. aureus); assay: microbe, parasite or virus in culture; type: cell-based, Staphylococcus aureus; settings: Staphylococcus aureus
Experimental: as §1, §2

[4] = tested on: MRSA22 (clinically isolated methicillin-resistant S. aureus); assay: microbe, parasite or virus in culture; type: cell-based, Staphylococcus aureus; settings: Staphylococcus aureus
Experimental: as §1, §2

[5] = tested on: SA220823 (clinically isolated S. aureus); assay: microbe, parasite or virus in culture; type: cell-based, Staphylococcus aureus; settings: Staphylococcus aureus
Experimental: as §1, §2

MRSA-Z [6] = assay: Bacterial killing kinetic assay; type: cell-based, Staphylococcus aureus; settings: 10 × MIC, 6 h, RPMI 1640, 37 °C, CFU count, 3 individual experiments
Experimental: (§4) The bactericidal killing kinetic assay was performed according to a previous study with minor modifications. Firstly, S. aureus ATCC6538 or methicillin-resistant S. aureus MRSA-Z was diluted to 2 × 10^5 CFU/mL using RPMI 1640 medium. Equal volumes of either RK22 (final concentration 1, 5, 10 × MIC) or vancomycin (Macklin, Shanghai, China) (final concentration 1, 5, 10 × MIC) solutions were added to the bacterial suspension. The mixtures were then incubated at 37 °C for different times (0, 15, 30, 60, 180, and 360 min). At each time point, the bacterial solution was inoculated on LB agar culture medium, and colony forming units (CFUs) were counted after 24 h.

S. aureus ATCC6538 [7] = assay: Bacterial killing kinetic assay; type: cell-based, Staphylococcus aureus; settings: RPMI 1640, 37 °C, CFU count, 3 individual experiments
Experimental: as §4

MRSA-Z [8] = assay: S. aureus-induced bacteremia model; type: in vivo, mouse; settings: RK22 8 mg/kg, vancomycin 4 mg/kg ip 1 h after infection, 4 h after administration
Experimental: (§5) S. aureus ATCC6538 or methicillin-resistant S. aureus MRSA-Z were diluted to a concentration of 1 × 10^9 CFU/mL with normal saline. Male C57BL/6 mice (6–8 weeks of age) were randomly divided into seven groups of 10–12 mice per group. S. aureus ATCC6538 (100 μL) or methicillin-resistant S. aureus MRSA-Z (200 μL) were injected intravenously. At the end of 1 h, mice received an intraperitoneal injection of normal saline, vancomycin (dissolved in saline with the concentration of 2 and 4 mg/kg), or RK22 (dissolved in saline with the concentration of 2, 4, and 8 mg/kg). At 4 h post-administration, the mice were sacrificed, and blood and lung samples were collected. Lungs were then weighed and placed in 1 mL of PBS and homogenized on ice with a tissue grinder. Homogenates and clarified blood were plated in LB agar culture medium and CFUs were counted after 24 h. For histopathological analysis, sections of lung were fixed with 4% paraformaldehyde, embedded in paraffin wax, and stained with H&E.

S. aureus ATCC6538 [9] = assay: S. aureus-induced bacteremia model; type: in vivo, mouse; settings: RK22 8 mg/kg, vancomycin 4 mg/kg ip 1 h after infection, 4 h after administration
Experimental: as §5

[10] = P. aeruginosa ATCC9027 in Table 3

T1 sequence (P00742 235-488 limits assumed): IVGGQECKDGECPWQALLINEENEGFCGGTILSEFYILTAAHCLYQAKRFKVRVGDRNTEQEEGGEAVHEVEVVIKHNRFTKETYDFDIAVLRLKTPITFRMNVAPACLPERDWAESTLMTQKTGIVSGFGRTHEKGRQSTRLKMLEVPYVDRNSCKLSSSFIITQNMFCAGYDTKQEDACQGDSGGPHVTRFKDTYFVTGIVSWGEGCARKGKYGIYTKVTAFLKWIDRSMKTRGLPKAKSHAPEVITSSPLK
T1 sequence (P00742 41-179 partner limits assumed): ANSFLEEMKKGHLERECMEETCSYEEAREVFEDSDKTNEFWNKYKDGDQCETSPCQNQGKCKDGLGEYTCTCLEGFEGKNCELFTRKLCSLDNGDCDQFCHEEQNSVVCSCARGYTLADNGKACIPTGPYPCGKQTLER

Molecule: KSSNTKAKKKKKNN [KS14]
- MIC (S. aureus (ATCC6538)): 50 µg/mL
- MIC (P. aeruginosa, ATCC9027; [10]): >100 µg/mL
- MIC (E. coli, ATCC25922; E. coli ATCC25922): >100 µg/mL

Molecule: LL-37
- platelet activation (washed platelets): significant and dose-dependent effects on platelet activation
- effect on enzymatic activity of FXa (FXa): significant potentiation activity
- effect on enzymatic activity of thrombin (thrombin): significant potentiation activity

Molecule: KTRRRNRKHKKTINTETVQI [KT20]
- MIC (S. aureus (ATCC6538)): 50 µg/mL
- MIC (P. aeruginosa, ATCC9027; [10]): >100 µg/mL
- MIC (E. coli, ATCC25922; E. coli ATCC25922): >100 µg/mL

Molecule: VFLICFSLISPASFENVRAKW [VF21]
- MIC (P. aeruginosa, ATCC9027; [10]): >100 µg/mL
- MIC (E. coli, ATCC25922; E. coli ATCC25922): >100 µg/mL

Molecule: KSKSKKPSKSKPKKKKTSVVQQELQDVISFDFGC [KS34]
- MIC (P. aeruginosa, ATCC9027; [10]): >100 µg/mL
- MIC (E. coli, ATCC25922; E. coli ATCC25922): >100 µg/mL

Molecule: CN[C@H](CC(C)C)C(=O)N[C@H]1C(=O)N[C@@H](CC(N)=O)C(=O)N[C@H]2C(=O)N[C@H]3C(=O)N[C@H](C(=O)N[C@H](C(=O)O)c4cc(O)cc(O)c4-c4cc3ccc4O)[C@H](O)c3ccc(c(Cl)c3)Oc3cc2cc(c3O[C@@H]2O[C@H](CO)[C@@H](O)[C@H](O)[C@H]2O[C@H]2C[C@](C)(N)[C@H](O)[C@H](C)O2)Oc2ccc(cc2Cl)[C@H]1O [Vancomycin, vancomycin, reference compound]
- MIC [1]: 1.56 µg/mL (≈ 1.08 µM)
- MIC (S. aureus (ATCC6538); Staphylococcus aureus): 1.56 µg/mL (≈ 1.08 µM)
- MIC [2]: 1.56 µg/mL (≈ 1.08 µM)
- MIC [3]: 1.56 µg/mL (≈ 1.08 µM)
- MIC [4]: 1.56 µg/mL (≈ 1.08 µM)
- MIC [5]: 1.56 µg/mL (≈ 1.08 µM)
- MRSA-Z inhibited / eradicated (MRSA-Z [6]): about 80%
- time to a kill rate of more than 90% (S. aureus ATCC6538 [7]; S. aureus ATCC6538, 5 × MIC): 6 h
- time to a kill rate of more than 90% (S. aureus ATCC6538 [7]; S. aureus ATCC6538, 10 × MIC): 6 h
- infection-induced tissue injury in the lung (H&E) (MRSA-Z [8]): significantly alleviated
- infection-induced hemorrhage and inflammatory cell infiltration in the lung (H&E) (S. aureus ATCC6538 [9]): significantly alleviated

Molecule: CC(C)C[C@H](NC(=O)[C@@H](NC(=O)[C@@H](NC(=O)[C@H](CS)NC(=O)[C@@H](NC(=O)[C@H](CCCCN)NC(=O)[C@H](CCCCN)NC(=O)[C@H](CCCCN)NC(=O)[C@H](CCCCN)NC(=O)[C@@H]1CCCN1C(=O)[C@H](CCCCN)NC(=O)[C@@H]1CCCN1C(=O)[C@H](CCCCN)NC(=O)[C@@H]1CCCN1C(=O)[C@H](CS)NC(=O)[C@H](CC(C)C)NC(=O)[C@@H](NC(=O)[C@H](C)NC(=O)[C@@H](N)CCCNC(=N)N)C(C)C)C(C)C)C(C)C)C(C)C)C(=O)O [RA19] (H-RAVLCPKPKPKKKKVCVVL-OH; N-terminus and C-terminus assumed)
- MIC (P. aeruginosa, ATCC9027; P. aeruginosa ATCC27853 as printed in the text): exceeding 100 μg/mL
- MIC (E. coli, ATCC25922; E. coli ATCC8739 as printed in the text): exceeding 100 μg/mL
